The numbers were not newly measured in PMC4138512 (Journal of computer-aided molecular design, 2014), which cites them from elsewhere.

Each structure is given as a SMILES string.

The test system of this series is BoNT/A.

Take `O=C(/C=C/c1ccc(O)c(O)c1)O[C@H](C(=O)O)[C@H](OC(=O)/C=C/c1ccc(O)c(O)c1)C(=O)O` [D-chicoric acid]: the “Inhibition in combination with 2,4-dichlorocinnamic hydroxamate” value is given as “nonmutually exclusive inhibition” and the “Type of inhibition of BoNT/A” value is “partial inhibition”.
Consider `COC(=O)c1ccc(O)c2nc3c(C=O)c(O)cc(O)c3nc12` [lomofungin], for which the “Inhibition in combination with 2,4-dichlorocinnamic hydroxamate and chicoric acid” value is reported as “synergistic inhibition”; the “Type of inhibition of BoNT/A” value is recorded as “non-competitive”.
